This is an account of results in patent US6544985B2, “Dihydro-benzo [b][1,4]diazepin-2-one derivatives” (Hoffman-La Roche Inc., priority 2001, dated 2003).

For orientation: melting point means the temperature of the solid-liquid transition. `CC(C)CN(C)c1cc2c(cc1Cl)NC(=O)CC(c1cccc(-n3cncn3)c1)=N2` [Example 173, 8-Chloro-7-(isobutyl-methyl-amino)-4-(3-[1,2,4]triazol-1-yl-phenyl)-1,3-dihydro-benzo[b][1,4]diazepin-2-one] displayed a melting point of 213 °C.

`CN(c1cc2c(cc1C(F)(F)F)NC(=O)CC(c1ccnc(C#N)c1)=N2)C1CC1` [Example 83, 4-[8-(Cyclopropyl-methyl-amino)-4-oxo-7-trifluoromethyl-4,5-dihydro-3H-benzo[b][1,4]diazepin-2-yl]-pyridine-2-carbonitrile] yielded a melting point of 200 to 205 °C.

Regarding `Cc1cc(-c2cccc(C3=Nc4cc(N(C)CC(C)C)c(C(F)(F)F)cc4NC(=O)C3)c2)on1` [Example 118, 7-(Isobutyl-methyl-amino)-4-[3-(3-methyl-isoxazol-5-yl)-phenyl]-8-trifluoromethyl-1,3-dihydro-benzo[b][1,4]diazepin-2-one], the melting point is 195 °C.

As for `Cc1cc(-c2cccc(C3=Nc4cc(N5CCC5)c(C(F)(F)F)cc4NC(=O)C3)c2)on1` [Example 62, 7-Azetidin-1-yl-4-[3-(3-methyl-isoxazol-5-yl)-phenyl]-8-trifluoromethyl-1,3-dihydro-benzo[b][1,4]diazepin-2-one], the melting point was 239 °C (dec.).

For `CN(C)c1cc2c(cc1Cl)NC(=O)CC(c1cccc(-c3nc(CN4CCOCC4)cs3)c1)=N2` [Example 192, 8-Chloro-7-dimethylamino-4-[3-(4-morpholin-4-ylmethyl-thiazol-2-yl)-phenyl]-1,3-dihydro-benzo[b][1,4]diazepin-2-one], the melting point lay within 138 to 143 °C.

Turning to `CCCN(C)c1cc2c(cc1Cl)NC(=O)CC(c1cccc(-n3nncc3CN(C)C(C)C)c1)=N2` [Example 124, 8-Chloro-4-(3-{5-[(isopropyl-methyl-amino)-methyl]-[1,2,3]triazol-1-yl}-phenyl)-7-(methyl-propyl-amino)-1,3-dihydro-benzo[b][1,4]diazepin-2-one], the melting point was 148 °C.

Take `CN(C)c1cc2c(cc1C(F)(F)F)NC(=O)CC(c1cccc(-n3cc(CNC4CC4)cn3)c1)=N2` [Example 79, 4-[3-(4-Cyclopropylaminomethyl-pyrazol-1-yl)-phenyl]-7-dimethylamino-8-trifluoromethyl-1,3-dihydro-benzo[b][1,4]diazepin-2-one]: the melting point came out at 135 °C.

Molecule `CN(C)c1cc2c(cc1Cl)NC(=O)CC(c1ccnc(C#N)c1)=N2` [Example 15, 4-(7-Chloro-8-dimethylamino-4-oxo-4,5-dihydro-3H-benzo[b][1,4]diazepin-2-yl)-pyridine-2-carbonitrile] had a melting point of 216 °C.

As to `CC(C)CN(C)Cc1cnnn1-c1cccc(C2=Nc3cc(N(C)C(C)C)c(Cl)cc3NC(=O)C2)c1` [Example 149, 8-Chloro-4-(3-{5-[(isobutyl-methyl-amino)-methyl]-[1,2,3]triazol-1-yl}-phenyl)-7-(isopropyl-methyl-amino)-1,3-dihydro-benzo[b][1,4]diazepin-2-one], the melting point was 182 °C.

The molecule `CN(C)Cc1cnnn1-c1cccc(C2=Nc3cc(N(C)C)c(F)cc3NC(=O)C2)c1` [Example 43, 7-Dimethylamino-4-[3-(5-dimethylaminomethyl-[1,2,3]triazol-1-yl)-phenyl]-8-fluoro-1,3-dihydro-benzo[b][1,4]diazepin-2-one] displayed a melting point of 181 °C.

As to `CN(C)c1cc2c(cc1C(F)(F)F)NC(=O)CC(c1cccc(-n3nncc3CNCC(F)(F)F)c1)=N2` [Example 76, 7-Dimethylamino-4-(3-{5-[(2,2,2-trifluoro-ethylamino)methyl]-[1,2,3]triazol-1-yl}-phenyl)8-trifluoromethyl-1,3-dihydro-benzo[b][1,4]diazepin-2-one], the melting point lay in the range of 168 to 170 °C.

Molecule `Cc1cc2c(cc1N(C)C)N=C(c1cccc(-n3nncc3CO)c1)CC(=O)N2` [Example 90, 7-Dimethylamino-4-[3-(5-hydroxymethyl-[1,2,3]triazol-1-yl)-phenyl]-8-methyl-1,3-dihydro-benzo[b][1,4]diazepin-2-one] returned a melting point of 190 °C.

As for `CN(C)c1cc2c(cc1C(F)(F)F)NC(=O)CC(c1cccc(-n3cncn3)c1)=N2` [Example 74, 7-Dimethylamino-4-(3-[1,2,4]triazol-1-yl-phenyl)-8-trifluoromethyl-1,3-dihydro-benzo[b][1,4]diazepin-2-one], the melting point fell in the range of 228 to 230 °C.

`O=C1CC(c2cccc(-n3nncc3CO)c2)=Nc2cc(N3CCCC3)c(C(F)(F)F)cc2N1` [Example 41, 4-[3-(5-Hydroxymethyl-[1,2,3]triazol-1-yl)-phenyl]-7-pyrrolidin-1-yl-8-trifluoromethyl-1,3-dihydro-benzo[b][1,4]diazepin-2-one] gave a melting point of 134 °C.

`CN(C)c1cc2c(cc1C(F)(F)F)NC(=O)CC(c1cccc(-c3nocc3CO)c1)=N2` [Example 70, 7-Dimethylamino-4-[3-(4-hydroxymethyl-isoxazol-3-yl)-phenyl]-8-trifluoromethyl-1,3-dihydro-benzo[b][1,4]diazepin-2-one]: the melting point lay in the range of 217 to 219 °C.

On to `CC(C)CN(C)c1cc2c(cc1Cl)NC(=O)CC(c1cccc(-n3ccnn3)c1)=N2` [Example 175, 8-Chloro-7-(isobutyl-methyl-amino)-4-(3-[1,2,3]triazol-1-yl-phenyl)-1,3-dihydro-benzo[b][1,4]diazepin-2-one], for which the melting point worked out at 85 °C.

`COCCN(C)Cc1cnnn1-c1cccc(C2=Nc3cc(N(C)C(C)C)c(Cl)cc3NC(=O)C2)c1` [Example 146, 8-Chloro-7-(isopropyl-methyl-amino)-4-[3-(5-{[(2-methoxy-ethyl)-methyl-amino]-methyl}-[1,2,3]triazol-1-yl)-phenyl]-1,3-dihydro-benzo[b][1,4]diazepin-2-one] had a melting point of 119 °C.

`N#Cc1cc(C2=Nc3cc(N4CCC4)c(C(F)(F)F)cc3NC(=O)C2)ccn1` [Example 61, 4-(8-Azetidin-1-yl-4-oxo-7-trifluoromethyl-4,5-dihydro-3H-benzo[b][1,4]diazepin-2-yl)-pyridine-2-carbonitrile] registered a melting point of 241 °C.

On to `Cc1cc(-c2cccc(C3=Nc4cc(N(C)C)c(C#N)cc4NC(=O)C3)c2)on1` [Example 98, 8-Dimethylamino-2-[3-(3-methyl-isoxazol-5-yl)-phenyl]-4-oxo-4,5-dihydro-3H-benzo[b][1,4]diazepine-7-carbonitrile], for which the melting point amounted to 248 °C.

Molecule `Cc1scnc1-c1cccc(C2=Nc3cc(N(C)C)c(C(F)(F)F)cc3NC(=O)C2)c1` [Example 213, 7-Dimethylamino-4-[3-(5-methyl-thiazol-4-yl)-phenyl]-8-trifluoromethyl-1,3-dihydro-benzo[b][1,4]diazepin-2-one] registered a melting point of 214 to 215 °C.

In the case of `CN(C)c1cc2c(cc1Cl)NC(=O)CC(c1cccc(-c3csc(Nc4ccncc4)n3)c1)=N2` [Example 197, 8-Chloro-7-dimethylamino-4-{3-[2-(pyridin-4-ylamino)-thiazol-4-yl]-phenyl}-1,3-dihydro-benzo[b][1,4]diazepin-2-one], the melting point was 231 to 234 °C.
